# Measurements taken from patent publication US11046647B2, “Activators of the unfolded protein response” (The Board of Trustees of the University of Illinois, priority 2018, dated 2021).
# Tests used:
# Format in all cases: cell-based, human
# MCF-7 cells [1] = assay: Alamar Blue/raptinal 24-hour cell death assay, MCF-7; settings: for IC50: 24-hour incubation, Alamar blue fluorescence, normalized to vehicle and raptinal
# Protocol: FIG. 4. […] MCF7 (ERα) cells, 24 hour incubation, read out via Alamar Blue Fluorescence, Dead Control: Raptinal, n=3 (A, B). […] Orthotopic Mouse Xenograft breast cancers of TYS cells, Visualization by bioluminescent imaging. Treatment: 40 mg/kg daily (−)-105 for 3 days either by oral gavage or by intraperitoneal injection.
# ALAMAR BLUE/RAPTINAL ASSAY: Live cells maintain a reducing environment. The non-fluorescent cell permeable ingredient of Alamar Blue® (resazurin) is taken up by cells. In living cells, it is reduced to the fluorescent compound resorufin. Using a standard curve of cell number versus fluorescence the number of live cells in a test sample can be determined. At high concentrations raptinal kills 100% of cells. The vehicle in which the test compound is dissolved is not toxic. Thus, after subtracting the blank for medium alone, the fluorescence reading for vehicle corresponds to 100% viable cells and the signal for raptinal corresponds to 0% viable cells. While this assay provides a less direct measurement of cell death than the trypan blue assay, it is more easily scaled up to large numbers of samples.
# ALAMAR BLUE RAPTINAL ASSAYS: Cells were plated at 4,000-10,000 cells/well (96 well plate), usually in 50 μl of medium. After about 18 hours, an additional 50 μl of medium containing 2× the desired final concentration of the test compound (C-105) was added to each well. After 24 hours Alamar Blue reagent was added and fluorescence in the wells was read (BMG PheraStar or Molecular Devices Spectra Max M3 Microplate Reader). % relative death was determined by setting the reading for raptinal-treated cells to 100% dead cells and the reading for vehicle-treated cells to 0% dead cells.
# Preparative gram-scale chiral separation of (±)-1 yields enantiopure (R)-1 and (S)-1 with opposite optical rotations (Scheme 5). […] Values were obtained after 24-hour incubation utilizing Alamar blue fluorescence assay normalized to live and death controls (vehicle and raptinal treated). (S)-1 IC50 is >1 μM. Error shown as S.E.M.
# MCF-7 cells [2] = assay: Dose-dependent death of MCF-7 cells (FIG. 10)
# TDG cells = assay: Trypan Blue exclusion cell death assay, TDG / TDG-Luc; settings: 24 hours
# Description: (§1) TRYPAN BLUE: For decades, viable cells have been measured by their ability to exclude the dye Trypan Blue. […] Dead cells, which have lost membrane integrity, take up the dye and are blue. Thus, the percentage of dead cells is the percentage of cells that are Trypan Blue positive out of the total cell population. Quantitative assessment of Trypan Blue uptake uses a cell counter from Fisher. Since the assay is instrument based, there is no observer bias in determining the percentage of Trypan Blue positive cells.
# (§2) TRYPAN BLUE ASSAYS: Assays are performed on cells in 6 well plates: 300,000 cells are plated in each well of a 6-well plate in 3 ml of medium. After 24 hours, the DMSO vehicle or the indicated compound is added (in 1000th of the vol.) The cells incubated for an additional 24 hours, and then harvested in 0.25 ml of trypsin, followed after harvest by 0.75 ml of medium. The cells are spun down and resuspended in 100-200 μl of medium left that is over the cell pellet (resuspend cells by pipetting up and down a few times). Add 10 μl to 10 μl of trypan blue. Then 10 μl is inserted into the counting slide. After inserting the slide into the Fisher TC20 counting is automatic (these many cells are needed because an accurate ratio of Trypan Blue positive to Trypan Blue negative cells requires about 200 cells in the field the instrument counts).
# The Trypan Blue cell death assay was used to evaluate the ability of the active enantiomer of C-105 [(−)-105] to kill ERα positive TDG-Luc cells. For all studies, 300,000 TDG-Luc cells/well in 10% FBS were plated in a 6-well plate in triplicate. 24 hours after plating, the indicated concentrations the active enantiomer of (−)-105, or BHPI (top) ICI, or OHT (Lower left) or (+)-105 (lower right) were added. After 24 hours, the cells were harvested, and the % dead cells was determined by automated Trypan Blue exclusion using the Countess II automated hemocytometer. Percentage of viable cells was calculated by doing 100-(Cell Death %). (n=3±SEM).
# TDG cells were incubated for 24 hours with 75 nM of BHPI or 75 nM of each of the indicated test compounds: 4, 6 and (±)-105 (enantiomers not separated). Cell death was determined using the instrument-based Trypan Blue exclusion assay. Structures are in the Synthesis section. […] (n=3±SEM).
# TYS cells = assay: Trypan Blue exclusion cell death assay, TYS / TYS-Luc; settings: 24 hours
# Description: as §1, §2
# The Trypan Blue cell death assay was used to evaluate the ability of the active enantiomer of 105 (−) [(−)-105] to kill ERα positive MCF-7 and TYS-Luc, human breast cancer cells. 300,000 T47D cells/well in 10% FBS were plated in a 6-well plate in triplicate. 24 hours after plating, the indicated concentrations of BHPI, or the active enantiomer 105 (−) of C-105 [(−)-105] was added. After 24 hours, the cells were harvested, and the % dead cells was determined by automated Trypan Blue exclusion using the Countess II automated hemocytometer. Percentage of viable cells was calculated by doing 100-(Cell Death %). (n=3±SEM).
# TYS cells were incubated for 24 hours with 35 nM of BHPI or 35 nM of each of the indicated test compounds: 2, 4, and 105. Cell death was determined using the instrument-based Trypan Blue exclusion assay.
# TYS cells were incubated for 24 hours with 50 nM of BHPI or 50 nM of each of the indicated test compounds: 4, 6 and 105. Cell death was determined using the instrument-based Trypan Blue exclusion assay. (n=3±SEM).
# T47D cells = assay: Trypan Blue exclusion cell death assay, T47D / T47D-Luc; settings: 24 hours
# Description: as §1
# as §2, with “After inserting the slide into the Fisher TC20 counting is automatic (these many cells are needed because an accurate ratio of Trypan Blue positive to Trypan Blue negative cells requires about 200 cells in the field the instrument counts).” left out
# The Trypan Blue cell death assay was used to compare the ability of the active (−) enantiomer of C-105 and BHPI to kill estrogen receptor α (ERα) positive T47D, human breast cancer cells expressing luciferase (T47D-Luc cells). […] After 24 hours, the cells were harvested, and the % dead cells was determined by automated Trypan Blue exclusion using the Countess II automated hemocytometer. Percentage of viable cells was calculated by doing 100-(Cell Death %). […]
# T47D cells were incubated for 24 hours with 75 nM of BHPI or 75 nM of each of the indicated test compounds: 4 and 6. Cell death was determined using the instrument-based Trypan Blue exclusion assay. […]
# T47D cells were treated for 24 hours with 100 nM BHPI, or with 100 nM of each of the test compounds: 6, 8, and 105. […] Cell death was determined using the instrument-based Trypan Blue exclusion assay. […]
Compound,IC50 (MCF-7 cells [1]; listed as (R)-1) [nM],"ability to kill compared with BHPI and 01-15 (FIG. 4B) (MCF-7 cells [1]; 24 hour incubation, dead control raptinal)",cell death (MCF-7 cells [2]),"killing of TDG-Luc cells, dose response (TDG cells; TDG-Luc)","killing of TYS-Luc cells, dose response (TYS cells; TYS-Luc)","killing of T47D cells, dose response (T47D cells; T47D-Luc)","IC50 (MCF-7 cells [1]; Homo sapiens, MCF7) [nM]",ability to kill TDG cells compared to BHPI (TDG cells; 75 nM),ability to kill TYS cells compared to BHPI (TYS cells; 35 nM),ability to kill TYS cells compared to BHPI (TYS cells; 50 nM),ability to kill T47D cells compared to BHPI (T47D cells; 100 nM)
"O=C1Nc2c(C(F)(F)F)cccc2C1(c1ccc(O)cc1)c1ccc(OC(F)(F)F)cc1 (single isomer, unassigned; (-)) [(−)-105, 3-(4-hydroxyphenyl)-3-(4-(trifluoromethoxy)phenyl)-7-(trifluoromethyl)indolin-2-one]",20.3,superior to BHPI and 01-15,induces dose-dependent death,superior to BHPI and current endocrine therapies,superior to BHPI,superior to BHPI,,,,,
"O=C1Nc2c(C(F)(F)F)cccc2C1(c1ccc(O)cc1)c1ccc(OC(F)(F)F)cc1 (racemic) [(±)-105, 3-(4-hydroxyphenyl)-3-(4-(trifluoromethoxy)phenyl)-7-(trifluoromethyl)indolin-2-one]",,,inactive,,,,42.6,greatly increased ability to kill,greatly increased ability to kill,increased ability to kill,increased ability to kill
